Columns and labels:
Cannabinoid receptor 2 = Cannabinoid receptor 2 (Homo sapiens, UniProt P34972); assay: Displacement of [3H]CP-55-940 from human recombinant CB2 receptor in COS cells; assay type: cell-based
Cannabinoid receptor 1 = Cannabinoid receptor 1 (Homo sapiens, UniProt P21554); assay: Displacement of [3H]CP-55-940 from human recombinant CB1 receptor in COS cells; assay type: cell-based
Chain of Cannabinoid receptor 1 (P21554 whole entry): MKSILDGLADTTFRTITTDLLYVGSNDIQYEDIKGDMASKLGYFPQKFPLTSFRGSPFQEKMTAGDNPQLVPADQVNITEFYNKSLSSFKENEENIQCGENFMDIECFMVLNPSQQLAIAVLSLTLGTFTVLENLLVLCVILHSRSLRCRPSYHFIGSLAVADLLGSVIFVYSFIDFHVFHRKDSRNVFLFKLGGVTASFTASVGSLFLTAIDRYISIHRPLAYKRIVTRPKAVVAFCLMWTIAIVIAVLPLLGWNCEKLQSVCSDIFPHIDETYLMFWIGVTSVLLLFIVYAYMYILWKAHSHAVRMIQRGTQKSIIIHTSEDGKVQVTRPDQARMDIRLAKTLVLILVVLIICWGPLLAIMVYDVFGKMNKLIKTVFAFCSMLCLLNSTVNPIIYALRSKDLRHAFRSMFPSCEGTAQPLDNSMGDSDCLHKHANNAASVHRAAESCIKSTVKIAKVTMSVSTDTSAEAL

Chain of Cannabinoid receptor 2 (P34972 whole entry): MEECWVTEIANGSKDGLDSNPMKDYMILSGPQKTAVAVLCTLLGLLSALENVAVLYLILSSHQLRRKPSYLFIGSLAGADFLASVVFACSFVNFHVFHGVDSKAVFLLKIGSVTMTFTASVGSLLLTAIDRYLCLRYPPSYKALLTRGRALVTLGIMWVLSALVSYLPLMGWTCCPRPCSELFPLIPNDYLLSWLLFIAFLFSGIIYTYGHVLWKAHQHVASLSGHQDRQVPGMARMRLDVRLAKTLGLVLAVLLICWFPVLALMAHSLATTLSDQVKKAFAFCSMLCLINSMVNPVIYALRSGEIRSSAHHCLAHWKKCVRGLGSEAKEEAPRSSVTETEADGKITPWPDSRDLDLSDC

Structure (SMILES): C[C@H](CO)NC(=O)CCC/C=C\C/C=C\C/C=C\C/C=C\CCOC(=O)c1cc(I)ccc1N=[N+]=[N-]
- Ki (Cannabinoid receptor 2): 220 nM
- Ki (Cannabinoid receptor 1): 570 nM
